Key:
H^+ /K^+ ATPase = biological target: T1, H^+ /K^+ ATPase (Oryctolagus cuniculus, UniProt P27112); assay: Inhibition of H^+ /K^+ ATPase (vesicles from gastric mucose membrane of rabbit); type: biochemical; conditions: pH 7.4, 37° C., 30 minutes preincubation, 15 minutes incubation; read-out: Enzyme Inhibition (IC50)
T1 construct: from tissue; host or cells: rabbit gastric mucosa, membrane vesicles (differential and Ficoll density gradient centrifugation)
Method: Inhibition of H^+ /K^+ ATPase, a proton carrying enzyme, was measured by following the procedure of Saccomani et al. [Biochim. Biophy. Acta., 465, 311-330 (1977)]. Thus, a homogenate of the gastric mucose membrane of rabbit was used to prepare vesicles containing H^+ /K^+ ATPase by employing differential centrifugation and discontinuous density gradient centrifugation in Ficoll. The vesicles containing the enzyme were preincubated in a solution (0.5 ml) containing 1×10^-4 M, 1×10^-5 M, 1×10^-6 M, or 1×10^-7 M of the inventive compound (Example 21) and 5 mM of imidazole buffer (pH 7.4) at a temperature of about 37° C. for about 30 minutes. omeprazole was used as a control. A solution containing 2 mM of magnesium chloride, 40 mM of imidazole buffer (pH 7.4), 10 mM of potassium chloride and 10 mM of ATP was added to the mixture. The resulting mixture was incubated at 37° C. for 15 minutes and the reaction was terminated by adding 1 ml of ice-cold 22% solution of trichloroacetic acid. Enzyme activity was calculated by measuring the separated inorganic phosphate by following the method of Fiske and Subbarow [J. Biol. Chem., 66, 375-440 (1925)].

Gastric Secretion = assay: Inhibition of gastric secretion (Shay pylorus ligation); type: in vivo, male Sprague-Dawley rats; conditions: rat, intraduodenal
Method: Inhibition of gastric secretion was measured by following the procedure of Shay ligation (Gastroenterology, 1954, 26, 903). Thus, male Sprague-Dawleyrats weighing 180-200 g were starved for 24 hours and their pylorus were ligated. Then, the inventive compounds (Examples 1, 13 and 17) or omeprazole as a positive control was administered into duodenum. Four hours later, the stomach was removed, and the acidity and amount of gastric juice were measured. By comparing the measured values with the acidity and amount of the gastric juice of the stomach of the reference group to which no test compound was administered, the inhibition of gastric secretion was calculated.

Ethanol-Induced Lesions = assay: Inhibition of Ethanol-Induced Lesions; type: in vivo, male Sprague-Dawley rats; conditions: rat, oral, 30 minutes before absolute ethanol (5 ml/kg); read-out: Anti-ulcer activity (ED50), Ethanol
Method: Inhibition activity of the inventive compound on the ethanol-induced ulcer was measured by using male sprague-Dawley rats weighing 180-200 g. Thus, rats were starved for 24 hours, and the inventive compound (Examples 1 and 17) or omeprazole as a positive control was orally administered. Thirty minutes later, absolute ethanol (5 ml/kg was orally administered. 1.5 hours later, the stomach was removed, and the degree of the wound of the stomach was measured. By comparing the measured values with the degree of the lesion of the stomach the reference group to which no test compound was administered, the effective dose (ED50) of the test compounds which inhibit the lesion by 50% were calculated and are shown in Table 3.

Mepirizole-Induced Ulcer = assay: Inhibition of Mepirizole-Induced Ulcer (duodenum); type: in vivo, male Sprague-Dawley rats; conditions: rat, oral, 30 minutes before mepirizole (250 mg/kg); read-out: Anti-ulcer activity (ED50), Mepirizole
Method: Inhibition activity of the inventive compounds on the mepirizole-induced ulcers was measured by using male Spraque-Dawley rats weighing 200-230 g. Thus, rats were not starved, and the inventive compounds (Examples 1 and 17) or omeprazole as a positive control was orally administered. Thirty minutes later, mepirizole suspended in 1% CMC (250 mg/kg) was orally administered. […], the duodena were removed. The degree of the ulcer thereof was measured. By comparing the measured values with the degree of the ulcer of the duodena of the reference group to which no test compound was administered, the effective deses (ED50) of the test compounds which inhibit the ulcer by 50% were calculated and are shown in Table 3.

[1] = system: Indomethacin-Induced Lesions; assay: Inhibition of Indomethacin-Induced Lesions; type: in vivo, male Sprague-Dawley rats; conditions: rat, oral, before 35 mg/kg indomethacin s.c.; read-out: Anti-ulcer activity (ED50), Indomethacin
Method: Inhibition activities of the inventive compounds on the indome][…]-induced lesions was measured by using male Sprague-Dawley rats. Thus, rats were starved for 48 hours and prohibited from being supplied with water for 2 hours, and 35 mg/kg of indomethacin (Sigma Co.) as a causative of gastric lesions was subcutaneously administered. Before Indomethacine treatment, the inventive compounds (Examples 1 and 17) or omeprazole as a positive control was orally administered, and the inhibitions of lesions by the action of the test compounds were observed.

[2] = system: Acetic Acid-Induced Ulcer; assay: Inhibition of Acetic Acid-Induced Ulcer (healing); type: in vivo, male Sprague-Dawley rats; conditions: rat, oral, 30 mg/kg, for 10 days
Method: Inhibition activity of the inventive compound on-the acetic acid-induced ulcer was evaluated by using male Sprague-Dawley rats. Thus, rats were starved for 5 hours prior to carrying out the experiment.
20 Microliter of 30% acetic acid was injected into the submucosal layer of the stomach using a microsyringe to induce a circular ulcer on the stomach. Various doses of the inventive compounds (Examples 1 and 17) or omeprazole as a positive control were orally administered for 10 days, and the healing of ulcer by the action of the test compounds were observed. The percentages of the healing of the ulcer were calculated by comparing them with that of reference group.

Stress-Induced Ulcer = assay: Inhibition of Stress-Induced Ulcer (water immersion); type: in vivo, male Sprague-Dawley rats; conditions: rat, oral, 30 minutes prior to immersion in water; read-out: Anti-ulcer activity (ED50), Stress
Method: Inhibition activity of the inventive compound on the stress-induced ulcer was evaluated by using male Sprague-Dawley rats. Thus, rats were starved for 24 hours prior to carrying out the experiment. Stress is an important factor for causing gastric lesions, and was applied to rats by immersing them in water. Thirty minutes prior to immersing rats into water, the inventive compounds (Examples 1 and 17) or omeprazole as a positive control was orally administered, and the inhibitions of ulcer by the action of the test compounds were observed.

T1 sequence (P27112 2-1035 limits assumed): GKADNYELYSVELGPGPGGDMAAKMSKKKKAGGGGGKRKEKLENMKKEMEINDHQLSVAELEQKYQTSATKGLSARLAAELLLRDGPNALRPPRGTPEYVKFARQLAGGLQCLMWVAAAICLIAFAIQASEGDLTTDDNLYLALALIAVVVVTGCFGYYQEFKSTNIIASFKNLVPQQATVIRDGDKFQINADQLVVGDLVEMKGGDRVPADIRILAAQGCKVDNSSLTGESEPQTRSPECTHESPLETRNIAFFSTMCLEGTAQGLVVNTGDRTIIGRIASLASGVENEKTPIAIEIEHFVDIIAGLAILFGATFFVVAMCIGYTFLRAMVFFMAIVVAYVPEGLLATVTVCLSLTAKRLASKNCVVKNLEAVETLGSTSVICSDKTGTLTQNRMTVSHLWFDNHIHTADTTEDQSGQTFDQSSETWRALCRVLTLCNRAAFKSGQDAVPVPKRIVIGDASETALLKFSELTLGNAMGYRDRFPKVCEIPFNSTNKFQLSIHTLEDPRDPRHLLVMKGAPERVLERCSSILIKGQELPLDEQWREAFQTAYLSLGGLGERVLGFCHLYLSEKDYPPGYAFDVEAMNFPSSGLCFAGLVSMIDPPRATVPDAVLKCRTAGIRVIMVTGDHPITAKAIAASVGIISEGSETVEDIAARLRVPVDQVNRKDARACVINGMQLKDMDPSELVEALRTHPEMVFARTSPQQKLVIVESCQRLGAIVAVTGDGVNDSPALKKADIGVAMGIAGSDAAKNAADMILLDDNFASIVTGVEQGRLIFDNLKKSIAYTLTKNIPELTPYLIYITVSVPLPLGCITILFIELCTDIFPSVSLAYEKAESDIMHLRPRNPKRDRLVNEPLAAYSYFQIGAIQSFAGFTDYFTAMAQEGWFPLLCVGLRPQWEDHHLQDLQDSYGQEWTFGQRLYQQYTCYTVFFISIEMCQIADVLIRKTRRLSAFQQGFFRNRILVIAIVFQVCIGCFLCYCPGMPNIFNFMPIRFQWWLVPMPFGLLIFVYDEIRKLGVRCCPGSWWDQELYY
T1 sequence (P18597 whole entry partner): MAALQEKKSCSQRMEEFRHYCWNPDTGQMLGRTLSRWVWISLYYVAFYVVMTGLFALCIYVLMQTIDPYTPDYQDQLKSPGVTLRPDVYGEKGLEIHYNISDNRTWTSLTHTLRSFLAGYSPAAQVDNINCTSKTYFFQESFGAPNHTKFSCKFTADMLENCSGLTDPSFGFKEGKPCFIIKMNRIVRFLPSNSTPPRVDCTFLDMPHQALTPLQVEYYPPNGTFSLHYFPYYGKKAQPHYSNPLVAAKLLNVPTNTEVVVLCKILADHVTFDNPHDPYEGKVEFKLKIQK

IC50 (H^+ /K^+ ATPase) [µM] | Compound | Gastric juice Secretion Inhibition (percent) (Gastric Secretion; 25 mg/kg, 4 hours) [%] | ED50 (Ethanol-Induced Lesions) [mg/kg] | ED50 (Mepirizole-Induced Ulcer) [mg/kg] | ED50 [1] [mg/kg] | Anti-ulcer activity, Acetic acid: Percentage of healing [2] [%] | ED50 (Gastric Secretion; 4 hours after pylorus ligation, read-out: Gastric juice Secretion Inhibition (ED50)) [mg/kg] | ED50 (Stress-Induced Ulcer) [mg/kg]
21.6 | CNc1nc2c(s1)CCc1c-2sc2nc(-c3ccccc3)cn12 [Example 2] | – | – | – | – | – | – | –
200 | Br.Br.Nc1nc2c(s1)CCc1c-2sc2nc3ccccc3n12 [Example 13, 2-amino-4,5-dihydrobenzimidazo[2,1-b]thiazolo[5,4-g]benzothiazole dihydrobromide] | 34.0 | – | – | – | – | – | –
49 | Nc1nc2c(s1)CCc1nc3ccccn3c1-2 [Example 17, 2-amino-4,5-dihydropyrido[1,2-a]thiazolo [5,4-g]benzimidazole] | – | 2.91 | 18.7 | 4.68 | 31.59 | 15.4 | 17.6
100 | NC(N)=Nc1nc2c(s1)-c1nc(N)sc1CC2 [Example 18] | – | – | – | – | – | – | –
– | COc1ccc2[nH]c([S+]([O-])Cc3ncc(C)c(OC)c3C)nc2c1 (stereo not shown) [Omeprazole, reference compound] | – | 17.1 | 2.8 | 1.2 | 27.1 | – | 4.4

— patent US6043373A, “Heterocycle-fused thiazole derivatives” (Yungjin Pharmaceutical Co., Ltd., priority 1995, dated 2000)
